From ChEMBL document CHEMBL1201862, “PubChem BioAssay data set” (2004)
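How tested: cells in 96-well plates exposed to compound for 48 hours at five concentrations. GI50 = concentration required for 50% inhibition of growth.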 Activity calls are given as the source filed them. No stated cut-off is given here; in the data, active = GI50 up to about 1.1 µM and inactive = higher.

Columns and labels:
Test in all cases: NCI tumour cell line growth inhibition, 48 h
HL-60 = system: HL-60
OVCAR-8 = system: OVCAR-8
NCI-H460 = system: NCI-H460
HOP-62 = system: HOP-62
K562 = system: K562
SR = system: SR
HCT-15 = system: HCT-15
RXF 393 = system: RXF 393
CAKI-1 = system: CAKI-1
HCC 2998 = system: HCC 2998
A498 = system: A498
MDA-MB-435 = system: MDA-MB-435
SN12C = system: SN12C
IGROV-1 = system: IGROV-1
SK-MEL-2 = system: SK-MEL-2
OVCAR-3 = system: OVCAR-3
OVCAR-5 = system: OVCAR-5
HOP-92 = system: HOP-92
SF-268 = system: SF-268
UO-31 = system: UO-31

SMILES | GI50 (HL-60) | GI50 (OVCAR-8) | GI50 (NCI-H460) | GI50 (HOP-62) | GI50 (K562) | GI50 (SR) | GI50 (HCT-15) [µM] | GI50 (RXF 393) | GI50 (CAKI-1) | GI50 (HCC 2998) | GI50 (A498) | GI50 (MDA-MB-435) | GI50 (SN12C) | GI50 (IGROV-1) | GI50 (SK-MEL-2) | GI50 (OVCAR-3) | GI50 (OVCAR-5) | GI50 (HOP-92) | GI50 (SF-268) | GI50 (UO-31)
CN1CCCC2C(c3ccccc3)C(C3=NCCCC3)C(c3ccccc3)CC21 (stereo not given) | 31.8 µM (inactive) | 39.5 µM (inactive) | 27.7 µM (inactive) | > 100 µM (inactive) | 17.2 µM (inactive) | 32.1 µM (inactive) | 27.2 | 23.4 µM (inactive) | > 100 µM (inactive) | 15.6 µM (inactive) | 42.6 µM (inactive) | 19.5 µM (inactive) | > 100 µM (inactive) | 50 µM (inactive) | > 100 µM (inactive) | 35.6 µM (inactive) | > 100 µM (inactive) | 85.9 µM (inactive) | 59.3 µM (inactive) | –
CCCN(C(=O)c1ccccc1)C(C#N)c1ccc(C(C#N)N(CCC)C(=O)c2ccccc2)cc1 (stereo not given) | > 100 µM (inactive) | 55.3 µM (inactive) | – | 27.1 µM (inactive) | > 100 µM (inactive) | > 100 µM (inactive) | > 100 | 35.6 µM (inactive) | > 100 µM (inactive) | > 100 µM (inactive) | 37.1 µM (inactive) | > 100 µM (inactive) | > 100 µM (inactive) | 32.4 µM (inactive) | > 100 µM (inactive) | > 100 µM (inactive) | 93.3 µM (inactive) | 16.3 µM (inactive) | 85.9 µM (inactive) | > 100 µM (inactive)
COc1cc2nc3c(=C(C#N)C#N)c4ccccc4n3c(=O)c2cc1OC | – | > 100 µM (inactive) | > 100 µM (inactive) | > 100 µM (inactive) | > 100 µM (inactive) | > 100 µM (inactive) | > 100 | > 100 µM (inactive) | > 100 µM (inactive) | > 100 µM (inactive) | > 100 µM (inactive) | > 100 µM (inactive) | > 100 µM (inactive) | > 100 µM (inactive) | > 100 µM (inactive) | > 100 µM (inactive) | > 100 µM (inactive) | 36.5 µM (inactive) | 75.7 µM (inactive) | > 100 µM (inactive)
Nc1nc(=O)n(C2OC(CO)C(O)C2O)c2ncc(-c3ccc(-c4ccccc4)cc3)nc12 (stereo not given) | – | > 100 µM (inactive) | > 100 µM (inactive) | 60 µM (inactive) | > 100 µM (inactive) | 3.63 µM (inactive) | > 100 | > 100 µM (inactive) | > 100 µM (inactive) | > 100 µM (inactive) | > 100 µM (inactive) | > 100 µM (inactive) | > 100 µM (inactive) | > 100 µM (inactive) | > 100 µM (inactive) | – | > 100 µM (inactive) | > 100 µM (inactive) | > 100 µM (inactive) | > 100 µM (inactive)
Cc1nc(Nc2ccccc2Cl)sc1C(=O)CC(=O)C(=O)Nc1c(Cl)cccc1Cl | 8.95 µM (inactive) | 29.4 µM (inactive) | 34.5 µM (inactive) | 22.8 µM (inactive) | 41.8 µM (inactive) | 31.2 µM (inactive) | 33.3 | 23.4 µM (inactive) | 84.1 µM (inactive) | 39.5 µM (inactive) | – | 22.9 µM (inactive) | 44 µM (inactive) | 15.8 µM (inactive) | 16.1 µM (inactive) | 17.4 µM (inactive) | 24.9 µM (inactive) | 20.6 µM (inactive) | 35.6 µM (inactive) | 23 µM (inactive)
CC1=CC(=O)N(n2c(Cc3ccc(Cl)cc3)n[nH]c2=O)C1=O | – | 55.5 µM (inactive) | 36.1 µM (inactive) | – | 23.3 µM (inactive) | 15.9 µM (inactive) | 44.9 | 8.24 µM (inactive) | 88.3 µM (inactive) | > 100 µM (inactive) | 71.8 µM (inactive) | 38.2 µM (inactive) | 81.3 µM (inactive) | 83.4 µM (inactive) | > 100 µM (inactive) | 33.6 µM (inactive) | > 100 µM (inactive) | 21.1 µM (inactive) | 70.1 µM (inactive) | > 100 µM (inactive)
COc1ccc(C2CCc3c(cnc4nc(N)nc(N)c34)C2)cc1 (stereo not given) | 6.28 µM (inactive) | 5.4 µM (inactive) | 4.89 µM (inactive) | 20.5 µM (inactive) | 0.83 µM (active) | 8 µM (inactive) | 5.15 | 16.8 µM (inactive) | > 100 µM (inactive) | 94.4 µM (inactive) | 38.4 µM (inactive) | 4.53 µM (inactive) | 7.16 µM (inactive) | 1.09 µM (active) | 47.4 µM (inactive) | 62.5 µM (inactive) | 13.9 µM (inactive) | 2.38 µM (inactive) | 12.9 µM (inactive) | –
CN(C)CCCn1nc(N)c2nc3cc(Cl)ccc3nc21 | – | 40.2 µM (inactive) | 39.3 µM (inactive) | 55.3 µM (inactive) | > 76.2 µM (inactive) | 32.5 µM (inactive) | 48.9 | 30.6 µM (inactive) | > 79.6 µM (inactive) | 35.7 µM (inactive) | 52.1 µM (inactive) | 34 µM (inactive) | 59.8 µM (inactive) | 22.9 µM (inactive) | 28.3 µM (inactive) | 99.8 µM (inactive) | 40.4 µM (inactive) | 25.3 µM (inactive) | 58.1 µM (inactive) | 28.6 µM (inactive)
